Experimental data as given in patent US20250319063A1, “METHODS AND COMPOUNDS FOR RESTORING MUTANT P53 FUNCTION” (PMV PHARMACEUTICALS, INC., priority 2022, published 2025).
“Also recorded” adds a separate entry of the source. Read-outs that look alike come from different tables or passages of the source.

Assay: Single oral dose plasma pharmacokinetics in fasted and fed healthy subjects (food effect, ethnicity)
Type: in vivo, human
Details: for Tmax / Vd/F / half-life / AUC(0-t) / AUC(0-inf) / Cmax: both sexes, human, plasma, po; for Vd/F: read-out: Vz/F, GeoMean; for half-life: read-out: t½, GeoMean (converted)
Experimental: Compound 1 pharmacokinetics were analyzed in healthy subjects administered Compound 1 in a fasted state. A subject was considered fasted if the subject fasted overnight for at least 10 hours and water was permitted ad libitum except for 1 hour before and after drug administration. For fasted subjects, Compound 1 was administered with at least 8 ounces (240 mL) of water. Compound 1 pharmacokinetics were also analyzed in healthy subjects administered Compound 1 in a fed state. A subject was considered fed after consuming a high-fat meal 30 minutes prior to drug administration, and the meal was finished at least 5 minutes prior to drug administration. For both fasted and fed subjects, no food was permitted for at least 4 hours post-dose and water was permitted starting at 1 hour post-dose.
Subjects were healthy, non-smoking male and female Caucasian/non-Asian or Japanese participants 18 to 55 years of age with a BMI between […].
In Part 1 of the study, analysis was performed to compare 1000 mg Compound 1 in fed and fasted states. A dose of 1000 mg of Compound 1 consisted of two 500 mg tablets administered as a single oral dose. The analysis of Part 1 was performed at two separate time points in two different schemes (1A and 1B).
In scheme 1A, at period 1, Compound 1 analyzed in healthy subjects administered 1000 mg Compound 1 (n=3) in a fed state. Following a washout period of 7-9 days, these subjects were then administered 1000 mg Compound 1 in a fasted state.
Separately, in scheme 1B, at period 1, Compound 1 was analyzed in healthy subjects administered 1000 mg Compound 1 (n=3) in a fasted state. Following a washout period of 7-9 days, these subjects were then administered 1000 mg Compound 1 in a fed state.
In Part 2 of the study, analysis was performed to compare 2000 mg Compound 1 in fed and fasted states and also to compared ethnicity of Caucasian/non-Asian subjects and Japanese subjects. A dose of 2000 mg of Compound 1 consisted of four 500 mg tablets administered as a single oral dose.
For Caucasian/non-Asian subjects (n=20) the analysis was performed at two separate time points in two different schemes (2A and 2B). During scheme 2A, at period 1, Compound 1 was analyzed in subjects administered 2000 mg Compound 1 (n=10) in a fed state. Following a washout period of 7-9 days, at period 2, these subjects were then administered 2000 mg Compound 1 in a fasted state. Separately in scheme 2B, at period 1, Compound 1 was analyzed in subjects administered 2000 mg Compound 1 (n=10) in a fasted state. Following a washout period of 7-9 days, at period 2, these subjects were then administered 2000 mg Compound 1 in a fed state.
For Japanese subjects (n=6), Compound 1 pharmacokinetics were analyzed in subjects administered 2000 mg Compound 1 in a fasted state.
Blood for the analysis of study drug (Compound 1) and metabolite (M1) were collected.
Various pharmacokinetic (PK) parameters were determined for each subject. (Tables 9-12 and FIGS. 23-28).
Statistical analysis of Compound 1 plasma PK parameters were evaluated for food effects for Part 1 (Table 11) and Part 2 (Table 12). The log-transformed PK parameters were analyzed using an analysis of variance model with treatment (fed/fasted condition) and period as fixed effects and participant as a random effect.

[1] = 1000 mg, 1000 mg oral, Fasted (Part 1)
[2] = 1000 mg, 1000 mg oral, Fed (Part 1)
[3] = 2000 mg, 2000 mg oral, Fasted, Caucasian/Non-Asian
[4] = 2000 mg, 2000 mg oral, Fasted, Japanese
[5] = 2000 mg, 2000 mg oral, Fed, Caucasian/Non-Asian

## CNC(=O)c1ccc(NCC#Cc2cc3c(N[C@@H]4CCN(C)C[C@@H]4F)cccc3n2CC(F)(F)F)c(OC)c1 [Compound 1, 4-((3-(4-(((3S,4R)-3-fluoro-1-methylpiperidin-4-yl)amino)-1-(2,2,2-trifluoroethyl)-1H-indol-2-yl)prop-2-yn-1-yl)amino)-3-methoxy-N-methylbenzamide]
1000 mg, 1000 mg oral, Fasted (Part 1), read-out: Tmax, Minimum, Maximum
  Tmax: 1.54 to 2.51 h
[1]
  Vd/F: 148 L
  half-life: 924 min
1000 mg, 1000 mg oral, Fed (Part 1), read-out: AUC0-24, GeoMean
  AUC(0-t): 119 µg·h/mL
1000 mg, 1000 mg oral, Fed (Part 1), read-out: AUC0-96, GeoMean
  AUC(0-t): 177 µg·h/mL
1000 mg, 1000 mg oral, Fed (Part 1), read-out: AUC0-inf, GeoMean
  AUC(0-inf): 180 µg·h/mL
1000 mg, 1000 mg oral, Fed (Part 1), read-out: AUC0-inf, Geometric Mean (analysis of variance model)
  AUC(0-inf): 180 µg·h/mL
1000 mg, 1000 mg oral, Fed (Part 1), read-out: AUC0-last, GeoMean
  AUC(0-t): 177 µg·h/mL
1000 mg, 1000 mg oral, Fed (Part 1), read-out: AUC0-last, Geometric Mean (analysis of variance model)
  AUC(0-t): 177 µg·h/mL
1000 mg, 1000 mg oral, Fed (Part 1), read-out: Cmax, GeoMean
  Cmax: 10600 ng/mL
1000 mg, 1000 mg oral, Fed (Part 1), read-out: Cmax, Geometric Mean (analysis of variance model)
  Cmax: 10600 ng/mL
1000 mg, 1000 mg oral, Fed (Part 1), read-out: Tmax, Median
  Tmax: 3.25 h
1000 mg, 1000 mg oral, Fed (Part 1), read-out: Tmax, Minimum, Maximum
  Tmax: 1.51 to 5.01 h
[2]
  Vd/F: 127 L
  half-life: 948 min
2000 mg, 2000 mg oral, Fasted (Part 2), read-out: AUC0-inf, Geometric Mean (analysis of variance model)
  AUC(0-inf): 260 µg·h/mL
2000 mg, 2000 mg oral, Fasted (Part 2), read-out: AUC0-last, Geometric Mean (analysis of variance model)
  AUC(0-t): 259 µg·h/mL
2000 mg, 2000 mg oral, Fasted (Part 2), read-out: Cmax, Geometric Mean (analysis of variance model)
  Cmax: 10400 ng/mL
2000 mg, 2000 mg oral, Fasted, Caucasian/Non-Asian, read-out: AUC0-24, GeoMean
  AUC(0-t): 138 µg·h/mL
2000 mg, 2000 mg oral, Fasted, Caucasian/Non-Asian, read-out: AUC0-96, GeoMean
  AUC(0-t): 255 µg·h/mL
2000 mg, 2000 mg oral, Fasted, Caucasian/Non-Asian, read-out: AUC0-inf, GeoMean
  AUC(0-inf): 259 µg·h/mL
2000 mg, 2000 mg oral, Fasted, Caucasian/Non-Asian, read-out: AUC0-last, GeoMean
  AUC(0-t): 254 µg·h/mL
2000 mg, 2000 mg oral, Fasted, Caucasian/Non-Asian, read-out: Cmax, GeoMean
  Cmax: 10300 ng/mL
2000 mg, 2000 mg oral, Fasted, Caucasian/Non-Asian, read-out: Tmax, Median
  Tmax: 2.52 h
2000 mg, 2000 mg oral, Fasted, Caucasian/Non-Asian, read-out: Tmax, Minimum, Maximum
  Tmax: 1.03 to 5.94 h
[3]
  Vd/F: 212 L
  half-life: 1190 min
2000 mg, 2000 mg oral, Fasted, Japanese, read-out: AUC0-24, GeoMean
  AUC(0-t): 193 µg·h/mL
2000 mg, 2000 mg oral, Fasted, Japanese, read-out: AUC0-96, GeoMean
  AUC(0-t): 326 µg·h/mL
2000 mg, 2000 mg oral, Fasted, Japanese, read-out: AUC0-inf, GeoMean
  AUC(0-inf): 338 µg·h/mL
2000 mg, 2000 mg oral, Fasted, Japanese, read-out: AUC0-last, GeoMean
  AUC(0-t): 326 µg·h/mL
2000 mg, 2000 mg oral, Fasted, Japanese, read-out: Cmax, GeoMean
  Cmax: 14700 ng/mL
2000 mg, 2000 mg oral, Fasted, Japanese, read-out: Tmax, Median
  Tmax: 3.94 h
[4]
  Vd/F: 149 L
  half-life: 1040 min
2000 mg, 2000 mg oral, Fed (Part 2), read-out: AUC0-inf, Geometric Mean (analysis of variance model)
  AUC(0-inf): 465 µg·h/mL
2000 mg, 2000 mg oral, Fed (Part 2), read-out: AUC0-last, Geometric Mean (analysis of variance model)
  AUC(0-t): 449 µg·h/mL
2000 mg, 2000 mg oral, Fed (Part 2), read-out: Cmax, Geometric Mean (analysis of variance model)
  Cmax: 19100 ng/mL
2000 mg, 2000 mg oral, Fed, Caucasian/Non-Asian, read-out: AUC0-24, GeoMean
  AUC(0-t): 250 µg·h/mL
2000 mg, 2000 mg oral, Fed, Caucasian/Non-Asian, read-out: AUC0-96, GeoMean
  AUC(0-t): 448 µg·h/mL
2000 mg, 2000 mg oral, Fed, Caucasian/Non-Asian, read-out: AUC0-inf, GeoMean
  AUC(0-inf): 479 µg·h/mL
2000 mg, 2000 mg oral, Fed, Caucasian/Non-Asian, read-out: AUC0-last, GeoMean
  AUC(0-t): 448 µg·h/mL
2000 mg, 2000 mg oral, Fed, Caucasian/Non-Asian, read-out: Cmax, GeoMean
  Cmax: 19000 ng/mL
2000 mg, 2000 mg oral, Fed, Caucasian/Non-Asian, read-out: Tmax, Median
  Tmax: 4.03 h
2000 mg, 2000 mg oral, Fed, Caucasian/Non-Asian, read-out: Tmax, Minimum, Maximum
  Tmax: 2.11 to 8.08 h
[5]
  Vd/F: 137 L
  half-life: 1360 min
Single oral doses
  plasma concentration-time profile: reached the maximum peak rapidly and declined roughly in a bi-exponential manner; also recorded: rapidly absorbed
